According to patent US20230271954A1 (Gossamer Bio Services, Inc., priority 2020, published 2023):

Columns and labels:
DGKα = DGKα (Homo sapiens, UniProt P23743); experiment: DGKα biochemical assay (ADP-Glo); conditions: read-out: DGK α IC50
Method in brief: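 ADP-Glo kinase assay using OAG/PS (1:2) lipid substrate, sonicated, in HEPES pH 7.0 buffer with MgCl2, CaCl2, DTT, BSA, Triton X-100. Enzyme preincubated with compound 30 min at RT; substrate with ATP (DGKα: 400 μM) added, 45 min RT. Luminescence read; % inhibition vs DMSO and no-enzyme controls.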

DGKζ = target: T1, DGKζ (Homo sapiens, UniProt Q13574); experiment: DGKζ biochemical assay (ADP-Glo); conditions: read-out: DGK ζ IC50
T1 construct: purchased Carna 12-110
T1 sequence (Q13574 1-929 isoform Q13574-4): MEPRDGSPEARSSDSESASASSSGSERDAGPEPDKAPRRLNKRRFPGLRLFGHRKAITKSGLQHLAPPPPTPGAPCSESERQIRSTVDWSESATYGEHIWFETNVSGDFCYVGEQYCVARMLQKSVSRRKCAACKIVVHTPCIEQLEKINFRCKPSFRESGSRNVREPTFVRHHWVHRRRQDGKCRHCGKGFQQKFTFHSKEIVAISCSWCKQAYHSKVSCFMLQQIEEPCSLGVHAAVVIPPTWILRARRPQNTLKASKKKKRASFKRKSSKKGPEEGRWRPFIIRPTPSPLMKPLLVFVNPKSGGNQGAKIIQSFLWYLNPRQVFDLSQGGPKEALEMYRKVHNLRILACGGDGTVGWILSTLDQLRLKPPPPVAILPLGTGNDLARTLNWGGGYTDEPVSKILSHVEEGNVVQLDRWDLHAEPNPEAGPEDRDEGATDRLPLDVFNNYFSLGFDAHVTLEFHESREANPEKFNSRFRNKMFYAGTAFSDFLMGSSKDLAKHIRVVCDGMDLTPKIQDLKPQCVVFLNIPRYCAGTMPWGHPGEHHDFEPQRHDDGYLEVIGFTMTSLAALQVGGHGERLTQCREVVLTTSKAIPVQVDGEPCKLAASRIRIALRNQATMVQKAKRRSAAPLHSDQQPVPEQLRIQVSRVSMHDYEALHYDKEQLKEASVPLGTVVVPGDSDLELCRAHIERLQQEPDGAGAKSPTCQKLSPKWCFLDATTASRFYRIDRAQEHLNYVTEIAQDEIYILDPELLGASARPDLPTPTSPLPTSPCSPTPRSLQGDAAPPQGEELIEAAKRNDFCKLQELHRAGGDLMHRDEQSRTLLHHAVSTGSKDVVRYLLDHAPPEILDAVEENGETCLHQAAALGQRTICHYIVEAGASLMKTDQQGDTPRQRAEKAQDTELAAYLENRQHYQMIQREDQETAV

Sequence of DGKα (P23743 whole entry): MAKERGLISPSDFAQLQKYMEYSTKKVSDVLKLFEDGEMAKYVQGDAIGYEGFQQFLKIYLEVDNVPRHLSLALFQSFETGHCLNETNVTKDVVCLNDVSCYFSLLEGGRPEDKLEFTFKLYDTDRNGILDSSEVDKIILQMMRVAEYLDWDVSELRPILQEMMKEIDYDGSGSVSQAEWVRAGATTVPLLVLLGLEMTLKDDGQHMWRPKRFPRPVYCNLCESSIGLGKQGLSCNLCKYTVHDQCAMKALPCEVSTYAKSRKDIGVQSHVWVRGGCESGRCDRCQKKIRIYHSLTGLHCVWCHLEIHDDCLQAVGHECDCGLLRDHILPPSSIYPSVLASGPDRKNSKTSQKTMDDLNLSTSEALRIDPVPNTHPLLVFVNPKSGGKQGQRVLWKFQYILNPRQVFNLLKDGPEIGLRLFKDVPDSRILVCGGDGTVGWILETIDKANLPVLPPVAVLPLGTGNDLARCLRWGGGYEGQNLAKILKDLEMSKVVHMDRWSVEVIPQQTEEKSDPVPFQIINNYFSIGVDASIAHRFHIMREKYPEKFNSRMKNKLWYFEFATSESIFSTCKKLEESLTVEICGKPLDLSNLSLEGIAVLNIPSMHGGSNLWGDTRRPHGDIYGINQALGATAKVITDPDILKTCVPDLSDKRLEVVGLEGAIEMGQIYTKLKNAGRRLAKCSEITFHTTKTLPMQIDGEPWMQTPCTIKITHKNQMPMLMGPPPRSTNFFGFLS

| Structure (SMILES) | IC50 (DGKα) | IC50 (DGKζ) |
| --- | --- | --- |
| CC(C)C(=O)N(c1ccc(F)cc1)[C@H]1CC[C@@H](N(C)c2c(C#N)c(=O)n(C)c3ccc(C#N)nc23)CC1 [Example 209, cis-N-(4-((3,6-dicyano-1-methyl-2-oxo-1,2-dihydro-1,5-naphthyridin-4-yl)(methyl)amino)cyclohexyl)-N-(4-fluorophenyl)isobutyramide] | 100 to 1000 nM | ≥ 1000 nM |
| Cn1c(=O)cc(N(C)[C@H]2CC[C@@H](N(CC3CCS(=O)(=O)CC3)c3ccc(F)cc3)CC2)c2nc(C#N)ccc21 [Example 211, cis-8-((4-(((1,1-dioxidotetrahydro-2H-thiopyran-4-yl)methyl)(4-fluorophenyl)amino)cyclohexyl)(methyl)amino)-5-methyl-6-oxo-5,6-dihydro-1,5-naphthyridine-2-carbonitrile] | 10 to 100 nM | ≥ 1000 nM |
| Cn1c(=O)c(C#N)c(N(C)[C@H]2CC[C@H](N(CC3CC3)c3cc4c(cn3)OCO4)CC2)c2nc(C#N)ccc21 [Example 212, trans-8-((-4-([1,3]dioxolo[4,5-c]pyridin-6-yl(cyclopropylmethyl)amino)cyclohexyl)(methyl)amino)-5-methyl-6-oxo-5,6-dihydro-1,5-naphthyridine-2,7-dicarbonitrile] | ≥ 1000 nM | ≥ 1000 nM |
| Cn1c(=O)c(C#N)c(N(C)[C@H]2CC[C@@H](N(CC3CC3)c3cc4c(cn3)OCO4)CC2)c2nc(C#N)ccc21 [Example 213, cis-8-((-4-([1,3]dioxolo[4,5-c]pyridin-6-yl(cyclopropylmethyl)amino)cyclohexyl)(methyl)amino)-5-methyl-6-oxo-5,6-dihydro-1,5-naphthyridine-2,7-dicarbonitrile] | 10 to 100 nM | 100 to 1000 nM |
| Cn1c(=O)cc(N(C)[C@H]2CC[C@@H](N(Cc3ccccc3)CC3CC3)CC2)c2nc(C#N)ccc21 [Example 214, cis-8-((-4-(benzyl(cyclopropylmethyl)amino)cyclohexyl)(methyl)amino)-5-methyl-6-oxo-5,6-dihydro-1,5-naphthyridine-2-carbonitrile] | ≥ 1000 nM | ≥ 1000 nM |
